Source: publication PMC5390467, “Novel lead structures with both Plasmodium falciparum gametocytocidal and asexual blood stage activity identified from high throughput compound screening” (Malaria Journal, 2017)

Tests used:
HepG2 cells = test: HepG2 cytotoxicity assay (AlamarBlue); type: cell-based, human; conditions: HepG2 cells, 72 h, AlamarBlue, up to 46 µM
Description: Asexual parasites of P. falciparum strain NF54 were cultured as described previously. Briefly, parasites were maintained in RPMI 1640 medium containing 10% positive human serum + erythrocytes (5% haematocrit), 2.5% sodium bicarbonate and 11 µg/mL gentamicin at 37 °C with 5% CO2, 5% O2 and 90% N2. Gametocyte cultures were set up at 0.1% parasitaemia and on days 9–10 treated with 50 mM N-acetylglucosamine (NAG) to block further asexual growth. Stage III–V gametocytes were isolated by Percoll density gradient centrifugation on day 12 and returned to culture for 24 h before being used in the assay. At the time of the assay over 73% of the gametocytes were stage IV or V (Additional file 1). HepG2 cells (ATCC, cat. no. 77400) were cultured in 175-cm^2 tissue culture flasks with 30 ml growth medium at 37 °C in a 5% CO2 and 5% O2 humidified atmosphere. Growth medium was made with Dulbecco’s Modified Eagle Medium with 10% fetal bovine serum (FBS). Growth medium was replaced every other day and cells were passaged at 75% confluence.
Drug activity on HepG2 was tested using an AlamarBlue assay as previously described. Briefly, 5 μL/well of HepG2 cells were dispensed with a seeding density of 1000 cells/well using the Multidrop Combi. 23 nL compound was transferred using the NX-TR Pintool. After 72 h incubation under the standard culture condition, 5 μL/well of 2X AlamarBlue dye was added to the cells, the plates were incubated for 2 h at 37 °C with 5% CO2 and then were read in a fluorescence detection mode (Ex = 525 nm, Em = 598 nm) on a ViewLux plate reader.

468 human kinases = test: human kinase profiling (Kinome scan, DiscoverX), whole panel; type: binding
[1] = biological target: T1, ABL1(Q252H)-phosphorylated (Homo sapiens, UniProt P00519, Q252H); test: Kinome scan profile; type: binding; conditions: 10 μM
T1 construct: purchased DiscoverX (KINOMEscan)

ERBB3 = biological target: T2, ERBB3 (Homo sapiens, UniProt P21860); test: Kinome scan profile; type: binding; conditions: 10 μM
T2 construct: purchased DiscoverX (KINOMEscan)

[2] = biological target: T3, TYK2(JH1domain-catalytic) (Homo sapiens, UniProt P29597); test: Kinome scan profile; type: binding; conditions: 10 μM
T3 construct: TYK2(JH1domain-catalytic); purchased DiscoverX (KINOMEscan)
T3 sequence (P29597 897-1176 limits assumed): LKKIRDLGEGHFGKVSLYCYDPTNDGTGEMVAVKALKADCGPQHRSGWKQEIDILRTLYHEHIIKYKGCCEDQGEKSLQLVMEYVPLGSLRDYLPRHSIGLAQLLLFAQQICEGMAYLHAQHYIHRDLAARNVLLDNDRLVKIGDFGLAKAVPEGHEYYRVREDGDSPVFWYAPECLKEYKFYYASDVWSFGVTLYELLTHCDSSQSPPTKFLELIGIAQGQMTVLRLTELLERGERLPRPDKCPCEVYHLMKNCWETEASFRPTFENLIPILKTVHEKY

[3] = biological target: T4, RSK2(Kin.Dom.2-C-terminal) (Homo sapiens, UniProt P51812); test: Kinome scan profile; type: binding; conditions: 10 μM
T4 construct: RSK2(Kin.Dom.2-C-terminal); purchased DiscoverX (KINOMEscan)

[4] = biological target: T5, JAK2(JH1domain-catalytic) (Homo sapiens, UniProt O60674); test: Kinome scan profile; type: binding; conditions: 10 μM
T5 construct: JAK2(JH1domain-catalytic); purchased DiscoverX (KINOMEscan)

KIT(A829P) = biological target: T6, KIT(A829P) (Homo sapiens, UniProt P10721, A829P); test: Kinome scan profile; type: binding; conditions: 10 μM
T6 construct: purchased DiscoverX (KINOMEscan)

MAP3K3 = biological target: T7, MAP3K3 (Homo sapiens, UniProt Q99759); test: Kinome scan profile; type: binding; conditions: 10 μM
T7 construct: purchased DiscoverX (KINOMEscan)
T7 sequence (Q99759 1-626): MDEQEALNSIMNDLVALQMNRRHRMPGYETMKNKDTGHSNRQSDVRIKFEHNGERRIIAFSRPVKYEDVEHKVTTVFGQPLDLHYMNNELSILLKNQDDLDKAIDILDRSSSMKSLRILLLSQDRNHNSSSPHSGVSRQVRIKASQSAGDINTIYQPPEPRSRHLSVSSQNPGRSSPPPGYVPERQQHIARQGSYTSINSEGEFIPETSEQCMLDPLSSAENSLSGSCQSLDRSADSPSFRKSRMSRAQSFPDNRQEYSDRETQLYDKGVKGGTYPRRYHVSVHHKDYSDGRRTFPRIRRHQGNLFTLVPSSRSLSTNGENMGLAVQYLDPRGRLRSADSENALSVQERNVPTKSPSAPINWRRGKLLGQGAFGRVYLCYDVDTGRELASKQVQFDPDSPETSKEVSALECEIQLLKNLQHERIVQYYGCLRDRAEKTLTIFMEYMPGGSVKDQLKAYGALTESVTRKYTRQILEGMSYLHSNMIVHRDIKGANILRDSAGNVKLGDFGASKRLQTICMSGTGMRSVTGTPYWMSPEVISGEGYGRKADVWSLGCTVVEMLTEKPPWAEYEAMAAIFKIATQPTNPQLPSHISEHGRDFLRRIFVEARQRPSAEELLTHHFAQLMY

T5 sequence (O60674 849-1124 limits assumed): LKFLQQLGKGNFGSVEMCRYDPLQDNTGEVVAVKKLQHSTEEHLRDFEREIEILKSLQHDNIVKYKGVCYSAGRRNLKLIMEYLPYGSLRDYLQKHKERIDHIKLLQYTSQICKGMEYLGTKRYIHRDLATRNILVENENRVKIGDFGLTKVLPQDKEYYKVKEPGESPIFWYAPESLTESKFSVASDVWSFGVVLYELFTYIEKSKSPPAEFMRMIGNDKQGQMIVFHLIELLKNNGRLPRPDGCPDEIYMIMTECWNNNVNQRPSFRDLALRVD
T6 sequence (P10721 26-976 A829P): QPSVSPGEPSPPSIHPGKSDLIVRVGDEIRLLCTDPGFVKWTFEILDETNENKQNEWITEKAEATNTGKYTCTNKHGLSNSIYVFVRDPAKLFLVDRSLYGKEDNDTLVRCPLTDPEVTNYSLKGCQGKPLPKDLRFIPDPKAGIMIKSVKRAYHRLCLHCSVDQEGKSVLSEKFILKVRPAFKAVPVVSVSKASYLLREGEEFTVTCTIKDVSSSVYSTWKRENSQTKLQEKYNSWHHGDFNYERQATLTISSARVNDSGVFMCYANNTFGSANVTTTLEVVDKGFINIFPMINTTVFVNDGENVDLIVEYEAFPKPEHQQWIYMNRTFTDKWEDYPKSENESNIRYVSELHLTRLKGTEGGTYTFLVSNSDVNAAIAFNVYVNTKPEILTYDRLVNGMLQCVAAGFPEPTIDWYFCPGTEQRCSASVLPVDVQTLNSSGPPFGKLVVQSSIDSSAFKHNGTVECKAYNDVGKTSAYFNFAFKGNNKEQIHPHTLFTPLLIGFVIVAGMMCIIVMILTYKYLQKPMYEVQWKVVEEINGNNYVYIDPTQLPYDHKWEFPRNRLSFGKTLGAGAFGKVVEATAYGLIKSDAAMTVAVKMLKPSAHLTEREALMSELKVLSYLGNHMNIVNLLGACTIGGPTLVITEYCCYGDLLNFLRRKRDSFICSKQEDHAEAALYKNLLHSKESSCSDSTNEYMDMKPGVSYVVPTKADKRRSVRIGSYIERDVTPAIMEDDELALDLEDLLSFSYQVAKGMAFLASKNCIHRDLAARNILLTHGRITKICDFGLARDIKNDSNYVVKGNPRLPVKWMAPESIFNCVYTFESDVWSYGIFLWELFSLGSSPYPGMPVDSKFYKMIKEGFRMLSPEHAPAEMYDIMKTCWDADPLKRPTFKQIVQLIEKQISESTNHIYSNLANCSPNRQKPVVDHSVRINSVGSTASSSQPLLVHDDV
T4 sequence (P51812 422-679 limits assumed): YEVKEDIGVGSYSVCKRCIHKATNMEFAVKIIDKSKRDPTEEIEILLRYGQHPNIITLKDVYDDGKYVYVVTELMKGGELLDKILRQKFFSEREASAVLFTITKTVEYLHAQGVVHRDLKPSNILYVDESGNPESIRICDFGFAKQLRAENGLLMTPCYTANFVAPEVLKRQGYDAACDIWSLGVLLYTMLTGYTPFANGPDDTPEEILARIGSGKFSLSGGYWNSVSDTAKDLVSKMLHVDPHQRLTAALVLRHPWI
T2 sequence (P21860 20-1342): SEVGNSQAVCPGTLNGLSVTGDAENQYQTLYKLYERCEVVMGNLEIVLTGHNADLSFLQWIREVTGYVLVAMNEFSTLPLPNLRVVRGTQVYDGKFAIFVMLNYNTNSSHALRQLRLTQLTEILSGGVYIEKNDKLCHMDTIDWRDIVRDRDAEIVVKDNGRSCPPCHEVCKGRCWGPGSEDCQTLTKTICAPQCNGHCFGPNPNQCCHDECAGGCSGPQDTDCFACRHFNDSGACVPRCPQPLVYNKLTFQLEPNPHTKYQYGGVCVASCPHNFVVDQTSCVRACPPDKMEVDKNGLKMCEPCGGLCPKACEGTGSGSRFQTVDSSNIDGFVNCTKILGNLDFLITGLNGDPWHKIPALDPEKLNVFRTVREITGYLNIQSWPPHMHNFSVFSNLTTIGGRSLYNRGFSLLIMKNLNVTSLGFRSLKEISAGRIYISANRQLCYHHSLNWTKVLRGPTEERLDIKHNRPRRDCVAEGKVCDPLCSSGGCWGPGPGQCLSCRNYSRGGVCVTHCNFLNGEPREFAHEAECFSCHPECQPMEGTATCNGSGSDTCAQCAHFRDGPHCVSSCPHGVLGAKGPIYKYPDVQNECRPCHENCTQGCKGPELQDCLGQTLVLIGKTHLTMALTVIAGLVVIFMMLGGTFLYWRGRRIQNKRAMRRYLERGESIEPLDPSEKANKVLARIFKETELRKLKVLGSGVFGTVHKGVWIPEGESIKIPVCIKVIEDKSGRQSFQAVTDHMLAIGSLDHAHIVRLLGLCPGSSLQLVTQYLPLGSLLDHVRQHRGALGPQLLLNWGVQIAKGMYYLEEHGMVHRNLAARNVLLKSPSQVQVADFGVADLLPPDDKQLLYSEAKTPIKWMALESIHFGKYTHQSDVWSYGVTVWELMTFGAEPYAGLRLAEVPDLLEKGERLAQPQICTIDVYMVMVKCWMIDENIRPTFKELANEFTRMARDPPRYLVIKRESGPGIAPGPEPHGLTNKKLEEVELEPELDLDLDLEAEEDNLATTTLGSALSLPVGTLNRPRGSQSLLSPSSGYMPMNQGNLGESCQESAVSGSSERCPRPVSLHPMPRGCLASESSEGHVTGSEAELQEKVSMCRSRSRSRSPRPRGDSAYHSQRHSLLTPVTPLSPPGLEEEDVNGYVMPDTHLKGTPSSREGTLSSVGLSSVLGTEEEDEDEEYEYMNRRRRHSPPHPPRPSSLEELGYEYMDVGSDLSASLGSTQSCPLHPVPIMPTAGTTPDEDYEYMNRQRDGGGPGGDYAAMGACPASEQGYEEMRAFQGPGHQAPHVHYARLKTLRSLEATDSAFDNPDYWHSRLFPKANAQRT

- number of human kinases interacting (Interactions Mapped, 468 Assays Tested) (468 human kinases; 10 μM): 16
- S-Score(35) (468 human kinases; 10 µM, 468 assays): 0.03
- % Control, ABL1(Q252H)-phosphorylated [1]: 9.9 % Control
- % Control, ERBB3 (ERBB3): 17 % Control
- % Control, TYK2(JH1domain-catalytic) [2]: 19 % Control
- % Control, RSK2(Kin.Dom.2-C-terminal) [3]: 29 % Control
- % Control, JAK2(JH1domain-catalytic) [4]: 31 % Control
- % Control, KIT(A829P) (KIT(A829P)): 34 % Control
- % Control, MAP3K3 (MAP3K3): 34 % Control
SMILES: CCN1CCN(Cc2c(O)ccc3c(=O)c(Oc4ccccc4C(C)C)c(C(F)(F)F)oc23)CC1 [NCGC00100599]
- HepG2, IC50 (dash = less than 25% cytotoxicity) (HepG2 cells): – (Indicates compounds with less than 25% cytotoxicity at up to 46 µM)
